Results reported in patent US10131652B2, “Pyrimidinyloxy benzene derivatives as herbicides” (E. I. DU PONT DE NEMOURS AND COMPANY, priority 2014, dated 2018).

Assays:
Format in all cases: in vivo
[1] = test system: blackgrass (Alopecurus myosuroides); assay: Test B postemergence plant response; details: 0 to 100 scale, 0 no effect, 100 complete control
How it was run: (§1)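 Visual injury ratings, 0 = no effect to 100 = complete control, versus untreated controls approximately 10 days after postemergence spraying in greenhouse. Plants were at one- to two-leaf stage, 2 to 10 cm tall, in loam soil/sand blend; a dash denotes no result.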

[2] = test system: galium (catchweed bedstraw, Galium aparine); assay: Test B postemergence plant response; details: 0 to 100 scale, 0 no effect, 100 complete control
How it was run: as §1

[3] = test system: Italian ryegrass (Lolium multiflorum); assay: Test D pre-/postemergence plant response
How it was run: (§2)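 0 = no effect, 100 = complete control: plants were scored this way by visual comparison with controls 13 to 15 days post-treatment. Application was preemergence to sown loam/sand pots or postemergence to 2–18 cm seedlings in peat-based mix.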

[4] = test system: barnyardgrass (Echinochloa crus-galli); assay: Test D pre-/postemergence plant response
How it was run: as §2

[5] = test system: corn (Zea mays); assay: Test D pre-/postemergence plant response
How it was run: as §2

[6] = test system: giant foxtail (Setaria faberii); assay: Test D pre-/postemergence plant response
How it was run: as §2

[7] = test system: morningglory (Ipomoea coccinea); assay: Test D pre-/postemergence plant response
How it was run: as §2

[8] = test system: oilseed rape (Brassica napus); assay: Test D pre-/postemergence plant response
How it was run: as §2

[9] = test system: pigweed (Amaranthus retroflexus); assay: Test D pre-/postemergence plant response
How it was run: as §2

[10] = test system: ragweed (common ragweed, Ambrosia elatior); assay: Test D pre-/postemergence plant response
How it was run: as §2

[11] = test system: soybean (Glycine max); assay: Test D pre-/postemergence plant response
How it was run: as §2

[12] = test system: waterhemp (common waterhemp, Amaranthus rudis); assay: Test D pre-/postemergence plant response
How it was run: as §2

[13] = test system: yellow nutsedge (Cyperus esculentus); assay: Test D pre-/postemergence plant response
How it was run: as §2

[14] = test system: chickweed (common chickweed, Stellaria media); assay: Test D postemergence plant response; details: for Chickweed plant response rating: scale 0 to 100 (0 no effect, 100 complete control); for Plant response rating, Chickweed: scale 0 to 100, 0 no effect, 100 complete control
How it was run: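 Visual scoring from 0 (no effect) to 100 (complete control), relative to controls, 13–15 days after treatment in the greenhouse. Compounds were applied postemergence at the 1- to 4-leaf stage (2–18 cm) to potted plants in peat-based medium.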

[15] = Postemergence, 16 g ai/ha, scale 0 to 100 (0 no effect, 100 complete control)
[16] = Postemergence, 31 g ai/ha, scale 0 to 100 (0 no effect, 100 complete control)
[17] = Postemergence, 62 g ai/ha, scale 0 to 100, 0 no effect, 100 complete control
[18] = Postemergence, 125 g ai/ha, scale 0 to 100, 0 no effect, 100 complete control
[19] = Preemergence, 16 g ai/ha, scale 0 to 100 (0 no effect, 100 complete control)
[20] = Preemergence, 31 g ai/ha, scale 0 to 100 (0 no effect, 100 complete control)
[21] = Preemergence, 62 g ai/ha, scale 0 to 100 (0 no effect, 100 complete control)

FC(F)c1cc(-c2c(Cl)cccc2Oc2ncc(Cl)cn2)on1 [Compound 120]
Plant response rating, Blackgrass ([1]; 31 g ai/ha, Postemergence): 70 | Plant response rating, Blackgrass ([1]; 125 g ai/ha, postemergence): 90 | Plant response rating, Galium ([2]; 31 g ai/ha, Postemergence): 100 | Plant response rating, Galium ([2]; 125 g ai/ha, postemergence): 100 | Ryegrass, Italian plant response rating [3, 15]: 5 | Ryegrass, Italian plant response rating [3, 16]: 5 | Plant response rating, Ryegrass, Italian [3, 17]: 10 | Plant response rating, Ryegrass, Italian [3, 18]: 50 | Plant response rating (scale 0 to 100), Ryegrass, Italian ([3]; Preemergence, 125 g ai/ha): 90 | Plant response rating, Ryegrass, Italian [3, 19]: 5 | Plant response rating, Ryegrass, Italian [3, 20]: 35 | Plant response rating, Ryegrass, Italian [3, 21]: 90 | Barnyardgrass plant response rating [4, 15]: 10 | Barnyardgrass plant response rating [4, 16]: 15 | Plant response rating, Barnyardgrass [4, 17]: 25 | Plant response rating, Barnyardgrass [4, 18]: 40 | Plant response rating (scale 0 to 100), Barnyardgrass ([4]; Preemergence, 62 g ai/ha): 90 | Plant response rating (scale 0 to 100), Barnyardgrass ([4]; Preemergence, 125 g ai/ha): 100 | Plant response rating, Barnyardgrass [4, 19]: 25 | Plant response rating, Barnyardgrass [4, 20]: 75 | Corn plant response rating [5, 15]: 15 | Corn plant response rating [5, 16]: 15 | Plant response rating, Corn [5, 17]: 10 | Plant response rating, Corn [5, 18]: 15 | Plant response rating (scale 0 to 100), Corn ([5]; Preemergence, 125 g ai/ha): 75 | Plant response rating, Corn [5, 19]: 0 | Plant response rating, Corn [5, 20]: 35 | Plant response rating, Corn [5, 21]: 25 | Foxtail, Giant plant response rating [6, 15]: 10 | Foxtail, Giant plant response rating [6, 16]: 10 | Plant response rating, Foxtail, Giant [6, 17]: 15 | Plant response rating, Foxtail, Giant [6, 18]: 25 | Plant response rating (scale 0 to 100), Foxtail, Giant ([6]; Preemergence, 125 g ai/ha): 100 | Plant response rating, Foxtail, Giant [6, 19]: 95 | Plant response rating, Foxtail, Giant [6, 20]: 98 | Plant response rating, Foxtail, Giant [6, 21]: 98 | Morningglory plant response rating [7, 15]: 85 | Morningglory plant response rating [7, 16]: 98 | Plant response rating, Morningglory [7, 17]: 80 | Plant response rating, Morningglory [7, 18]: 100 | Plant response rating (scale 0 to 100), Morningglory ([7]; Preemergence, 125 g ai/ha): 75 | Plant response rating, Morningglory [7, 19]: 0 | Plant response rating, Morningglory [7, 20]: 30 | Plant response rating, Morningglory [7, 21]: 60 | Oilseed Rape plant response rating [8, 15]: 80 | Oilseed Rape plant response rating [8, 16]: 85 | Plant response rating, Oilseed Rape [8, 17]: 90 | Plant response rating, Oilseed Rape [8, 18]: 95 | Plant response rating (scale 0 to 100), Oilseed Rape ([8]; Preemergence, 125 g ai/ha): 100 | Plant response rating, Oilseed Rape [8, 19]: 50 | Plant response rating, Oilseed Rape [8, 20]: 90 | Plant response rating, Oilseed Rape [8, 21]: 95 | Pigweed plant response rating [9, 15]: 98 | Pigweed plant response rating [9, 16]: 100 | Plant response rating, Pigweed [9, 17]: 100 | Plant response rating, Pigweed [9, 18]: 100 | Plant response rating (scale 0 to 100), Pigweed ([9]; Preemergence, 125 g ai/ha): 100 | Plant response rating, Pigweed [9, 19]: 100 | Plant response rating, Pigweed [9, 20]: 100 | Plant response rating, Pigweed [9, 21]: 100 | Ragweed plant response rating [10, 15]: 40 | Ragweed plant response rating [10, 16]: 55 | Plant response rating, Ragweed [10, 17]: 70 | Plant response rating, Ragweed [10, 18]: 85 | Plant response rating (scale 0 to 100), Ragweed ([10]; Preemergence, 125 g ai/ha): 100 | Plant response rating, Ragweed [10, 19]: 0 | Plant response rating, Ragweed [10, 20]: 0 | Plant response rating, Ragweed [10, 21]: 25 | Soybean plant response rating [11, 15]: 90 | Soybean plant response rating [11, 16]: 70 | Plant response rating, Soybean [11, 17]: 70 | Plant response rating, Soybean [11, 18]: 95 | Plant response rating (scale 0 to 100), Soybean ([11]; Preemergence, 125 g ai/ha): 50 | Plant response rating, Soybean [11, 19]: 75 | Plant response rating, Soybean [11, 20]: 10 | Plant response rating, Soybean [11, 21]: 60 | Waterhemp plant response rating [12, 15]: 90 | Waterhemp plant response rating [12, 16]: 100 | Plant response rating, Waterhemp [12, 17]: 100 | Plant response rating, Waterhemp [12, 18]: 100 | Plant response rating (scale 0 to 100), Waterhemp ([12]; Preemergence, 125 g ai/ha): 100 | Plant response rating, Waterhemp [12, 19]: 100 | Plant response rating, Waterhemp [12, 20]: 100 | Plant response rating, Waterhemp [12, 21]: 100 | Nutsedge, Yellow plant response rating [13, 15]: 5 | Nutsedge, Yellow plant response rating [13, 16]: 10 | Plant response rating, Nutsedge, Yellow [13, 17]: 10 | Plant response rating, Nutsedge, Yellow [13, 18]: 15 | Plant response rating (scale 0 to 100), Nutsedge, Yellow ([13]; Preemergence, 125 g ai/ha): 45 | Plant response rating, Nutsedge, Yellow [13, 19]: 0 | Plant response rating, Nutsedge, Yellow [13, 20]: 5 | Plant response rating, Nutsedge, Yellow [13, 21]: 35 | Chickweed plant response rating ([14]; 16 g ai/ha): 95 | Chickweed plant response rating ([14]; 31 g ai/ha): 100 | Plant response rating, Chickweed ([14]; 62 g ai/ha): 100 | Plant response rating, Chickweed ([14]; 125 g ai/ha): 100
